# Results published in patent US20150011423A1, “MEANS AND METHODS FOR ASSESSING KIDNEY TOXICITY” (BASF SE, priority 2011, published 2015).
# Marks after values point to notes of the source that are not given here.
# Test system: rats
# Assay: 28-day repeated dose study in rats with mass spectrometry-based plasma metabolite profiling (GC-MS, LC-MS, SPE-LC-MS); treatment ratios versus control
# Details: plasma; for Cytosine, treatment ratio versus control / Glutamate, treatment ratio versus control: Table 6b ACE inhibitor induced like toxicity
# [1] = male rats, day 7, high dose, Table 7a interstitial nephritis
# [2] = male rats, day 7, high dose, Table 7b interstitial nephritis
# [3] = male rats, day 14, high dose, Table 7a interstitial nephritis
# [4] = male rats, day 14, high dose, Table 7b interstitial nephritis
# [5] = male rats, day 28, high dose, Table 7a interstitial nephritis
# [6] = male rats, day 28, high dose, Table 7b interstitial nephritis
# [7] = female rats, day 14, high dose, Table 3a tubular defect
# [8] = female rats, day 14, high dose, Table 3b tubular defect
# [9] = female rats, day 28, high dose, Table 3a tubular defect
# [10] = female rats, day 28, high dose, Table 3b tubular defect
# [11] = male rats, day 14, high dose, Table 3c tubular defect
# [12] = male rats, day 14, high dose, Table 3d tubular defect
# [13] = male rats, day 28, high dose, Table 3c tubular defect
# [14] = male rats, day 28, high dose, Table 3d tubular defect
compound,measurement,setting,value
CCOC(=O)[C@H](CCc1ccccc1)N[C@@H](C)C(=O)N1[C@H](C(=O)O)C[C@@H]2CCC[C@@H]21 [Ramipril],"Cytosine, treatment ratio versus control","male rats, day 7, high dose",0.7 *
same,"Glutamate, treatment ratio versus control","male rats, day 7, high dose",0.92 *
same,"Glycine, treatment ratio versus control","male rats, day 14, high dose, Table 6a ACE inhibitor induced like toxicity",1.5 *
same,"Cytosine, treatment ratio versus control","male rats, day 14, high dose",0.85 *
same,"Glutamate, treatment ratio versus control","male rats, day 14, high dose",0.71 *
same,"Cytosine, treatment ratio versus control","male rats, day 28, high dose",0.91^
same,"Glutamate, treatment ratio versus control","male rats, day 28, high dose",0.61 *
C[C@H](CCC(=O)O)[C@H]1CC[C@H]2[C@@H]3CC[C@@H]4C[C@H](O)CC[C@]4(C)[C@H]3CC[C@]12C [Lithocholic acid],"Eicosanoic acid (C20:0), treatment ratio versus control",[1],1.81 *
same,"Glucuronic acid, treatment ratio versus control",[1],0.85 *
same,"Glycerol, polar fraction, treatment ratio versus control",[2],0.93^
same,"Isopalmitic acid (C16:0), treatment ratio versus control",[2],0.63 *
same,"Kynurenic acid, treatment ratio versus control",[2],0.75 *
same,"Glucuronic acid, treatment ratio versus control",[3],1
same,"myo-Inositol-2-phosphate, treatment ratio versus control",[3],1.01
same,"Glycerol, polar fraction, treatment ratio versus control",[4],0.86^
same,"Isopalmitic acid (C16:0), treatment ratio versus control",[4],0.54 *
same,"Kynurenic acid, treatment ratio versus control",[4],0.75 *
same,"Glucuronic acid, treatment ratio versus control",[5],1
same,"Lignoceric acid (C24:0), treatment ratio versus control",[5],1.3 *
same,"Sphingomyelin (d18:1, C16:0), treatment ratio versus control",[5],1.09
same,"Threonine, treatment ratio versus control",[5],1.55 *
same,"Glycerol, polar fraction, treatment ratio versus control",[6],0.73 *
same,"Isopalmitic acid (C16:0), treatment ratio versus control",[6],0.68 *
same,"Kynurenic acid, treatment ratio versus control",[6],0.71^
N.N.O=C([O-])C1(C(=O)[O-])CCC1.[Pt+2] [Carboplatin],"Creatine, treatment ratio versus control",[7],1.22 *
same,"Creatinine, treatment ratio versus control",[7],0.85
same,"Galactose, lipid fraction, treatment ratio versus control",[7],1.17 *
same,"Glucuronic acid, treatment ratio versus control",[7],1.36
same,"Glycerol-3-phosphate, polar fraction, treatment ratio versus control",[7],1.66 *
same,"Glycine, treatment ratio versus control",[7],1.08
same,"Histidine, treatment ratio versus control",[7],1.03
same,"Isoleucine, treatment ratio versus control",[7],1.09 *
same,"Leucine, treatment ratio versus control",[7],1.13 *
same,"Lysophosphatidylcholine (C18:1), treatment ratio versus control",[7],0.98
same,"Phosphatidylcholine No 02, treatment ratio versus control",[7],1.07 *
same,"TAG No 05, treatment ratio versus control",[7],1.9 *
same,"Threonic acid, treatment ratio versus control",[7],1.14
same,"Threonine, treatment ratio versus control",[7],0.99
same,"Uracil, treatment ratio versus control",[7],1.07
same,"Valine, treatment ratio versus control",[7],1.07 *
same,"Xylitol, treatment ratio versus control",[7],0.83
same,"Cysteine, treatment ratio versus control",[8],0.83 *
same,"Glycerol, polar fraction, treatment ratio versus control",[8],0.88^
same,"Hippuric acid, treatment ratio versus control",[8],0.59^
same,"Indole-3-acetic acid, treatment ratio versus control",[8],0.38 *
same,"Spermidine, treatment ratio versus control",[8],0.95^
same,"Sucrose, treatment ratio versus control",[8],0.67 *
same,"Creatine, treatment ratio versus control",[9],1.41 *
same,"Creatinine, treatment ratio versus control",[9],1.59 *
same,"Galactose, lipid fraction, treatment ratio versus control",[9],0.84^
same,"Glucuronic acid, treatment ratio versus control",[9],1.24 *
same,"Glycerol-3-phosphate, polar fraction, treatment ratio versus control",[9],2.2 *
same,"Glycine, treatment ratio versus control",[9],1.17 *
same,"Histidine, treatment ratio versus control",[9],1.3 *
same,"Isoleucine, treatment ratio versus control",[9],1.35 *
same,"Leucine, treatment ratio versus control",[9],1.38 *
same,"Lysophosphatidylcholine (C18:1), treatment ratio versus control",[9],1.12 *
same,"Phosphatidylcholine No 02, treatment ratio versus control",[9],0.97^
same,"TAG No 05, treatment ratio versus control",[9],1.27 *
same,"Threonic acid, treatment ratio versus control",[9],1.23 *
same,"Threonine, treatment ratio versus control",[9],1.24 *
same,"Uracil, treatment ratio versus control",[9],1.37 *
same,"Valine, treatment ratio versus control",[9],1.25 *
same,"Xylitol, treatment ratio versus control",[9],1.56 *
same,"Cysteine, treatment ratio versus control",[10],0.67
same,"Glycerol, polar fraction, treatment ratio versus control",[10],0.78 *
same,"Hippuric acid, treatment ratio versus control",[10],0.3 *
same,"Indole-3-acetic acid, treatment ratio versus control",[10],0.65
same,"Spermidine, treatment ratio versus control",[10],0.69 *
same,"Sucrose, treatment ratio versus control",[10],0.61
same,"Allantoin, treatment ratio versus control",[11],1.4
same,"Creatine, treatment ratio versus control",[11],1.32 *
same,"Glycerol-3-phosphate, polar fraction, treatment ratio versus control",[11],1.59 *
same,"Histidine, treatment ratio versus control",[11],1.02
same,"Kynurenic acid, treatment ratio versus control",[11],1.21 *
same,"Nervonic acid (C24:cis[15]1), treatment ratio versus control",[11],1.02
same,"Pantothenic acid, treatment ratio versus control",[11],1.17
same,"Pseudouridine, treatment ratio versus control",[11],1.33 *
same,"Taurine, treatment ratio versus control",[11],1.18 *
same,"Urea, treatment ratio versus control",[11],1.47 *
same,"16-Methylheptadecanoic acid, treatment ratio versus control",[12],0.74 *
same,"Linolenic acid (C18:cis[9,12,15]3), treatment ratio versus control",[12],0.75
same,"Phosphatidylcholine No 02, treatment ratio versus control",[12],0.87 *
same,"Phosphatidylcholine No 04, treatment ratio versus control",[12],0.74 *
same,"TAG (C18:1, C18:2), treatment ratio versus control",[12],0.79 *
same,"Allantoin, treatment ratio versus control",[13],1.24 *
same,"Creatine, treatment ratio versus control",[13],1.42 *
same,"Glycerol-3-phosphate, polar fraction, treatment ratio versus control",[13],1.61 *
same,"Histidine, treatment ratio versus control",[13],1.22 *
same,"Kynurenic acid, treatment ratio versus control",[13],1.7
same,"Nervonic acid (C24:cis[15]1), treatment ratio versus control",[13],1.51 *
same,"Pantothenic acid, treatment ratio versus control",[13],1.47 *
same,"Pseudouridine, treatment ratio versus control",[13],1.11 *
same,"Taurine, treatment ratio versus control",[13],1.54 *
same,"Urea, treatment ratio versus control",[13],1.08
same,"16-Methylheptadecanoic acid, treatment ratio versus control",[14],0.51 *
same,"Linolenic acid (C18:cis[9,12,15]3), treatment ratio versus control",[14],0.7 *
same,"Phosphatidylcholine No 02, treatment ratio versus control",[14],0.91 *
same,"Phosphatidylcholine No 04, treatment ratio versus control",[14],0.78
same,"TAG (C18:1, C18:2), treatment ratio versus control",[14],0.62 *
